# Source: patent US20260174786A1, “A NITROGEN-CONTAINING SPIROCYCLIC COMPOUND, PHARMACEUTICAL COMPOSITION AND USE THEREOF” (Prime Gene Therapeutics Co., Ltd., priority 2022, published 2026)
# Target: T1, hTRPV3 (Homo sapiens, UniProt Q8NET8)
# T1 construct: expressed in transfected cells; host or cells: HEK-293
# T1 sequence (Q8NET8 1-790): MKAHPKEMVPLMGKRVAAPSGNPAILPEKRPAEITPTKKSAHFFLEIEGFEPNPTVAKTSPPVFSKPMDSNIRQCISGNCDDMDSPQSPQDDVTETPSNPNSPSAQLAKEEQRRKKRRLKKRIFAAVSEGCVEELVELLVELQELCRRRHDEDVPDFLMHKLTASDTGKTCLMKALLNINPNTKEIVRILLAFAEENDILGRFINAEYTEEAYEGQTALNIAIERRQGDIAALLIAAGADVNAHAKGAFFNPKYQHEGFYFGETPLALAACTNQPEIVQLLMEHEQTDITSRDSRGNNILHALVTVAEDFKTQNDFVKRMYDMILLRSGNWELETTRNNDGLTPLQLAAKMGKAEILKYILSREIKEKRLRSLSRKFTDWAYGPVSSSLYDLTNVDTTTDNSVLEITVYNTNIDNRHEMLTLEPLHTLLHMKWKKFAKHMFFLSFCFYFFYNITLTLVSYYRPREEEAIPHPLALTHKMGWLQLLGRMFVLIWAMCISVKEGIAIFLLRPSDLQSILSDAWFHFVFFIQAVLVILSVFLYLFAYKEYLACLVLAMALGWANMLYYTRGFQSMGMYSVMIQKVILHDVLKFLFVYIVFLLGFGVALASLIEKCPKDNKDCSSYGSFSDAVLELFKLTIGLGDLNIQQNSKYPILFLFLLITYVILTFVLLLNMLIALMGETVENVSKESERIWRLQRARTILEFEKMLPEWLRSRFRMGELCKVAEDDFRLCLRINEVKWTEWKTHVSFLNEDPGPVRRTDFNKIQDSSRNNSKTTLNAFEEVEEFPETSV
# Experiment: Whole cell patch clamp inhibition rate test on HEK-293 cells instantaneously expressing TRPV3
# Type: cell-based
# Settings: HEK293; hTRPV3, single concentration 0.3 μM
# How it was run: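 HEK-293 cells transiently transfected with TRPV3, recorded next-but-one day by whole-cell patch clamp at room temperature: holding −80 mV, ramp −100 to 100 mV over 100 ms every 5 s, peak current monitored. Ascending concentrations perfused, 5 min each; each cell its own control, at least two cells per concentration.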
row,Structure (SMILES),inhibition at 0.3 µM [%]
1,"CC(C)c1ccccc1-c1ccc2c(c1)C(O)CC21CC(=O)N(Cc2ccc(F)cn2)C1 (stereo not shown) [Example 137, 1′-((5-fluoropyridin-2-yl)methyl)-3-hydroxy-5-(2-isopropylphenyl)-2,3-dihydrospiro[indene-1,3′-pyrrolidine]-5′-one]",< 25
2,"O=C(c1csc(Cl)n1)N1CCC2(CC(O)c3cc(-c4ccccc4C4CC4)ccc32)C1 (stereo not shown) [Example 17, (2-chlorothiazol-4-yl)(5-(2-cyclopropylphenyl)-3-hydroxy-2,3-dihydrospiro[indene-1,3′-pyrrolidine]-1′-yl) ketone]",70 to 100
3,"O=C(c1ccc(F)cn1)N1CCC2(CCC(O)c3cc(-c4ccccc4C4CC4)ccc32)C1 (stereo not shown) [Example 1, (6-(2-Cyclopropylphenyl)-4-hydroxy-3,4-dihydro-2H-spiro[naphthalene-1,3′-pyrrolidine]-1′-yl) (5-fluoropyridin-2-yl) ketone]",< 25
4,"CC(C)c1ccccc1-c1ccc2c(c1)C(O)CC21CCN(C(=O)C2CCN(C)CC2)C1 (stereo not shown) [Example 74, (3-hydroxy-5-(2-isopropylphenyl)-2,3-dihydrospiro[indene-1,3′-pyrrolidine]-1′-yl)(1-methylpiperidin-4-yl) ketone]",< 25
5,"Cc1cccc(-c2ccc3c(c2)C(O)CC32CCN(C(=O)c3ccc(F)cn3)C2)c1C1CC1 (stereo not shown) [Example 85, (5-(2-cyclopropyl-3-methylphenyl)-3-hydroxy-2,3-dihydrospiro[indene-1,3′-pyrrolidine]-1′-yl)(5-fluoropyridin-2-yl) ketone]",70 to 100
6,"CC(C)c1ccccc1-c1ccc2c(c1)C(O)CC21CCN(S(=O)(=O)c2ccc(Cl)cn2)C1 (stereo not shown) [Example 135, 1′-((5-chloropyridin-2-yl)sulfonyl)-5-(2-isopropylphenyl)-2,3-dihydrospiro[indene-1,3′-pyrrolidine]-3-ol]",< 25
7,"CCc1nccnc1Oc1ccc2c(c1)C(O)CC21CCN(C(=O)c2ccc(F)cn2)C1 (stereo not shown) [Example 105, (5-((3-ethylpyrazin-2-yl)oxy)-3-hydroxy-2,3-dihydrospiro[indene-1,3′-pyrrolidine]-1′-yl)(5-fluoropyridin-2-yl] ketone]",< 25
8,"O=C(c1ccc(F)cn1)N1CCC2(C1)CC(O)(C(F)(F)F)c1cc(-c3ccccc3C3CC3)ccc12 (stereo not shown) [Example 7, (5-(2-cyclopropylphenyl)-3-hydroxy-3-(trifluoromethyl)-2,3-dihydrospiro[indene-1,3′-pyrrolidine]-1′-yl)(5-fluoropyridin-2-yl) ketone]",< 25
9,"OC1CC2(CCN(c3cnc4cc(F)ccn34)C2)c2ccc(-c3ccccc3C3CC3)cc21 (stereo not shown) [Example 153, 5-(2-cyclopropylphenyl)-1′-(7-fluoroimidazo[1,2-a]pyridin-3-yl)-2,3-dihydrospiro[indene-1,3′-pyrrolidine]-3-ol]",70 to 100
10,"O=C(c1ccc(F)cn1)N1CCC2(CC(O)c3cc(-c4cccc5c4CCC5)ccc32)C1 (stereo not shown) [Example 87, (5-(2,3-dihydro-1H-indene-4-yl)-3-hydroxy-2,3-dihydrospiro[indene-1,3′-pyrrolidine]-1′-yl)(5-fluoropyridin-2-yl) ketone]",50 to 70
11,"Cc1ncccc1-c1ccc2c(c1)C(O)CC21CCN(C(=O)c2ccc(F)cn2)C1 (stereo not shown) [Example 91, (5-fluoropyridin-2-yl)(3-hydroxy-5-(2-methylpyridin-3-yl)-2,3-dihydrospiro[indene-1,3′-pyrrolidine]-1′-yl) ketone]",< 25
12,"COC(=O)C1CC2(CCN(C(=O)c3ccc(F)cn3)C2)c2ccc(-c3ccccc3C(C)C)cc21 (stereo not shown) [Example 130, methyl 1′-(5-fluoropyridoyl)-5-(2-isopropylphenyl)-2,3-dihydrospiro[indene-1,3′-pyrrolidine]-3-carboxylate]",< 25
13,"CC(C)(C#N)c1ccccc1-c1ccc2c(c1)C(O)CC21CCN(C(=O)c2ccc(F)cn2)C1 (stereo not shown) [Example 164, 2-(2-(1′-(5-fluoropyridoyl)-3-hydroxy-2,3-dihydrospiro[indene-1,3′-pyrrolidine]-5-yl)phenyl)-2-methyl propionitrile]",50 to 70
14,"O=C(c1ccc(Cl)cn1)N1CCC2(CC(O)c3cc(-c4ccccc4C4CC4)ccc32)C1 (stereo not shown) [Example 14, (5-chloropyridin-2-yl)(5-(2-cyclopropylphenyl)-3-hydroxy-2,3-dihydrospiro[indene-1,3′-pyrrolidine]-1′-yl) ketone]",70 to 100
15,"O=C(c1ccc(F)cn1)N1CCC2(CC(O)c3cc(-c4ccc(F)cc4C4CC4)ccc32)C1 (stereo not shown) [Example 163, (5-(2-cyclopropyl-4-fluorophenyl)-3-hydroxy-2,3-dihydrospiro[indene-1,3′-pyrrolidine]-1′-yl)(5-fluoropyridin-2-yl) ketone]",70 to 100
16,"CC(C)c1ccccc1Oc1ccc2c(c1)C(O)CC21CCN(C(=O)c2ccc(F)cn2)C1 (stereo not shown) [Example 104, (5-fluoropyridin-2-yl)(3-hydroxy-5-(2-isopropylphenyloxy)-2,3-dihydrospiro[indene-1,3′-pyrrolidine]-1′-yl) ketone]",70 to 100
17,"O=C(c1ccc(F)cn1)N1CC[C@]2(C[C@@H](O)c3cc(-c4ccccc4C4CC4)ccc32)C1 [Example 22, ((1R,3R)-5-(2-cyclopropylphenyl)-3-hydroxy-2,3-dihydrospiro[indene-1,3′-pyrrolidine]-1′-yl)(5-fluoropyridin-2-yl)ketone]",< 25
18,"O=C(c1ccc(F)cn1)N1CCC2(CC(O)c3cc(-c4cc(F)ccc4C4CC4)ccc32)C1 (stereo not shown) [Example 83, (5-(2-cyclopropyl-5-fluorophenyl)-3-hydroxy-2,3-dihydrospiro[indene-1,3′-pyrrolidine]-1′-yl)(5-fluoropyridin-2-yl) ketone]",70 to 100

# More lines, now with the values ahead:
row,inhibition at 0.3 µM [%],Structure (SMILES)
1,70 to 100,"CC(C)c1ccccc1-c1ccc2c(c1)C(O)CC21CCN(C(=O)c2csc(Cl)n2)C1 (stereo not shown) [Example 18, (2-chlorothiazol-4-yl)(3-hydroxy-5-(2-isopropylphenyl)-2,3-dihydrospiro[indene-1,3′-pyrrolidine]-1′-yl) ketone]"
2,70 to 100,"O=C(c1cccc(C2CC2)n1)N1CC[C@@]2(C[C@@H](O)c3cc(-c4ccccc4C4CC4)ccc32)C1 [Example 37, ((1S,3R)-5-(2-cyclopropylphenyl)-3-hydroxy-2,3-dihydrospiro[indene-1,3′-pyrrolidine]-1′-yl)(6-cyclopropylpyridin-2-yl) ketone]"
3,70 to 100,"CC(C)c1ccccc1-c1ccc2c(c1)C(O)CC21CCN(C(=O)c2ccc(Cl)cn2)C1 (stereo not shown) [Example 58, (5-chloropyridin-2-yl)(3-hydroxy-5-(2-isopropylphenyl)-2,3-dihydrospiro[indene-1,3′-pyrrolidine]-1′-yl)ketone]"
4,50 to 70,"CC(C)c1ccccc1-c1ccc2c(c1)C(O)CC21CCN(C(=O)c2ccn3nccc3n2)C1 (stereo not shown) [Example 57, (3-hydroxy-5-(2-isopropylphenyl)-2,3-dihydrospiro[indene-1,3′-pyrrolidine]-1′-yl)(pyrazolo[1,5-a]pyrimidin-5-yl) ketone]"
5,< 25,"CC(C)c1ccccc1-c1ccc2c(c1)[C@@H](O)C[C@]21CCN(C(=O)c2cccc(C3CC3)n2)C1 [Example 44, (6-cyclopropylpyridin-2-yl)((1R,3S)-3-hydroxy-5-(2-isopropylphenyl)-2,3-dihydrospiro[indene-1,3′-pyrrolidine]-1′-yl)ketone]"
6,< 25,"CC(C)c1ccccc1-c1ccc2c(c1)[C@@H](O)C[C@@]21CCN(C(=O)c2csc(Cl)n2)C1 [Example 35, (2-chlorothiazol-4-yl)((1S,3S)-3-hydroxy-5-(2-isopropylphenyl)-2,3-dihydrospiro[indene-1,3′-pyrrolidine]-1′-yl)ketone]"
7,50 to 70,"CC(C)c1ccccc1-c1ccc2c(c1)C(O)CC21CCN(C(=O)c2cc3cccn3cn2)C1 (stereo not shown) [Example 76, (3-hydroxy-5-(2-isopropylphenyl)-2,3-dihydrospiro[indene-1,3′-pyrrolidine]-1′-yl)(pyrrolo[1,2-c]pyrimidin-3-yl)ketone]"
8,< 25,CC(C)c1ccccc1-c1ccc2c(c1)[C@H](O)C[C@]21CCN(C(=O)c2ccc(F)cn2)C1 [Example 26]
9,70 to 100,"O=C(c1cccc(C2CC2)n1)N1CCC2(CC(O)c3cc(-c4ccccc4C4CC4)ccc32)C1 (stereo not shown) [Example 19, (5-(2-cyclopropylphenyl)-3-hydroxy-2,3-dihydrospiro[indene-1,3′-pyrrolidine]-1′-yl)(6-cyclopropylpyridin-2-yl) ketone]"
10,70 to 100,"COc1cnc(C(=O)N2CCC3(CC(O)c4cc(-c5ccccc5C(C)C)ccc43)C2)cn1 (stereo not shown) [Example 63, (3-hydroxy-5-(2-isopropylphenyl)-2,3-dihydrospiro[indene-1,3′-pyrrolidine]-1′-yl)(5-methoxypyrazin-2-yl) ketone]"
